The source of these data is ChEMBL document CHEMBL1131933, “Cleavage of the cyclohexyl-subunit of rapamycin results in loss of immunosuppressive activity” (Bioorg Med Chem Lett, 1999).

Assay [1] deals with Peptidyl-prolyl cis-trans isomerase FKBP1A (Homo sapiens, UniProt P62942). The experiment in a line: Compound was tested in vitro for its ability to compete with immobilized FK506 for binding to biotinylated FK506 binding protein 12 in a competitive binding assay.
A short description of assay [2]: Compound was tested in vitro for its ability to inhibit the proliferation of the IL-6-dependent hybridoma clone B13-29-15. The assay is classed as functional.
Assay [3] can be described thus: Compound was tested in vitro for inhibitory activity in the mixed lymphocyte reaction (MLR) assay. The assay is classed as functional.

Molecules are shown by their SMILES. pIC50: −log10 of the molar value.

Peptidyl-prolyl cis-trans isomerase FKBP1A, sequence (P62942 whole entry): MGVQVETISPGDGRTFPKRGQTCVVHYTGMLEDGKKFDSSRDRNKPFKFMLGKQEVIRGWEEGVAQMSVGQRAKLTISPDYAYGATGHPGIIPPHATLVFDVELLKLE

For the compound `COC(=O)CC[C@H](CCO)C[C@@H](C)[C@@H]1CC(=O)[C@H](C)/C=C(\C)[C@@H](O)[C@@H](OC)C(=O)[C@H](C)C[C@H](C)/C=C/C=C/C=C(\C)[C@@H](OC)C[C@@H]2CC[C@@H](C)[C@@](O)(O2)C(=O)C(=O)N2CCCC[C@H]2C(=O)O1`, the results for the negative logarithm of the IC50 (pIC50) in assay [1], in assay [2] and in assay [3] were 8.47, 6.70 and less than 6.42, respectively.
On to `CO[C@H]1C[C@@H]2CC[C@@H](C)[C@@](O)(O2)C(=O)C(=O)N2CCCC[C@H]2C(=O)O[C@H]([C@H](C)C[C@@H]2CC[C@@H](O)[C@H](OC)C2)CC(=O)[C@H](C)/C=C(\C)[C@@H](O)[C@@H](OC)C(=O)[C@H](C)C[C@H](C)/C=C/C=C/C=C/1C` [SIROLIMUS], for which the pIC50 in assay [2] and in assay [3] was 9.00 each time.

The term pIC50 denotes −log10 of the IC50, conventionally taken in molar units. A high value points to a small IC50.
